Our source for the EC50 values is PMC3201940, “A Robust and Rapid Method of Producing Soluble, Stable, and Functional G-Protein Coupled Receptors” (PLoS ONE, 2011).

As usually defined, the EC50 is the concentration needed to bring the measured effect to its halfway point. Low readings indicate an effect from little substance, high ones a need for much substance.

The experiment concerns the target T1, hVN1R1 (Homo sapiens, UniProt Q9GZP7).
T1 construct: gene VN1R1
T1 sequence (Q9GZP7 1-353): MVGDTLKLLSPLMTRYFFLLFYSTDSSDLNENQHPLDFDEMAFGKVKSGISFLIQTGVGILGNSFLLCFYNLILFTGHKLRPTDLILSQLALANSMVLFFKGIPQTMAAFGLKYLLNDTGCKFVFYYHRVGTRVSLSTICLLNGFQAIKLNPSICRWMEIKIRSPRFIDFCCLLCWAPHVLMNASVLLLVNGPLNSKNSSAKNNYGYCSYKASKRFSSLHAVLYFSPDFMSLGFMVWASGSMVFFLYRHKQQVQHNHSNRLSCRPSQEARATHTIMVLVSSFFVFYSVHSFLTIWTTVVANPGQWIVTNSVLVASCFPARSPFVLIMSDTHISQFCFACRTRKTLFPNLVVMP
Kind of experiment: label-free microscale thermophoresis (tryptophan fluorescence), purified receptor, heat-denatured control. The format is binding. (MST reads how a fluorescent partner responds to local heating, with and without ligand.)

In the case of `C=C(C)C1CC=C(C)C(O)C1` (mixture of isomers) [carveol], the EC50 was 3.5 ± 0.7 µM.
